# Laboratory results as given in paper PMC8920097, “Prediction of hERG inhibition of drug discovery compounds using biomimetic HPLC measurements” (ADMET & DMPK, 2021).
# Where two headings read alike, the source gives them in different places.
# Key:
# [1] = CHI lipophilicity by gradient reversed-phase HPLC (Gemini NX-C-18); details: for chromatographic logD: Gemini NX-C-18 reversed-phase HPLC column, pH 7.4; for chromatographic logP: reversed-phase HPLC, Gemini NX-C-18 column (50 x 3 mm, 5 µm)
# Method: The Chromatographic Hydrophobicity Index (CHI) was measured using the compounds’ calibrated gradient retention times obtained from an Agilent 1100 HPLC fitted with a Gemini NX-C-18 column (Phenomenex Ltd Macclesfield, UK) with dimensions of 50 x 3 mm and 5 μm particle size. […] The mobile phase B was 100 % acetonitrile. […] An acetonitrile linear gradient was used from 0 to 100 %. […] The retention time values for a standard set of compounds listed in Table 1 were used to convert the drug retention times to CHI values.
# [2] = biological target: human serum albumin (HSA) (Homo sapiens, UniProt P02768); experiment: Protein binding on Chiralpak HSA HPLC column
# Chain of human serum albumin (HSA) (P02768 25-609): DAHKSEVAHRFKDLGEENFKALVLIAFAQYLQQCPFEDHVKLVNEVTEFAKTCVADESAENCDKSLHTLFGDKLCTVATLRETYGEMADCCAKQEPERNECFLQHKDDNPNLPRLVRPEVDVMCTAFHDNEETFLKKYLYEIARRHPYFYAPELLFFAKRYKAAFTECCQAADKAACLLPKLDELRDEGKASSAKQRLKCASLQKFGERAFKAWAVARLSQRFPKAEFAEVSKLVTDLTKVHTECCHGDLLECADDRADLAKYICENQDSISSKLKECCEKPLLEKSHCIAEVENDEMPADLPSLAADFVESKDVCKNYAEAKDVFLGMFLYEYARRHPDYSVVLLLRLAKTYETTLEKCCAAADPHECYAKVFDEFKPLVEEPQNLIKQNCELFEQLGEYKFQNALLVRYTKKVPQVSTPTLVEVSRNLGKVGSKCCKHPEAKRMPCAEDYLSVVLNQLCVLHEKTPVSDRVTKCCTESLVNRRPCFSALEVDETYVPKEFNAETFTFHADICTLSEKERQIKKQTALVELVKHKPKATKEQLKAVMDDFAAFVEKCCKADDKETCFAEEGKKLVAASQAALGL
# Method: (§1) The measurement of the biomimetic properties of the available drugs was conducted in our laboratories. Generic gradient HPLC methods were used to determine the chromatographic hydrophobicity Index (CHI) using mobile phases at three different pH values. The protein binding of the compounds was measured using immobilised human serum albumin (HSA), and alpha-1-acid-glycoprotein (AGP) stationary phases. The phospholipid-binding was measured using the immobilised artificial membrane (IAM) stationary phase. The aim was to establish relationships between the cardiotoxicity potential and the biomimetic binding properties of the drugs and to evaluate their predictive performance.
# [3] = tested on: alpha-1-acid-glycoprotein (AGP); experiment: Protein binding on Chiralpak AGP HPLC column
# Method: as §1
# [4] = Phospholipid binding at pH 7.4 on IAM PC.DD2 HPLC column; assay type: physicochemical; set-up: key to CHI IAM: approximates acetonitrile concentration (%) in mobile phase at elution; details: for log k IAM: pH 7.4, derived from CHI IAM by equation 1; for CHI IAM: pH 7.4
# Method: The phospholipid-binding was measured using an IAM PC.DD2 column with dimensions of 100 x 4.6 mm (Regis Technologies Inc., Morton Grove, IL, USA). The gradient retention times were measured using a 50 mM ammonium acetate mobile phase with the pH adjusted to 7.4. The mobile phase flow rate was 1.5 mL/min. […] The cycle time was 6 min, plus an additional 1 min equilibration time was applied while the injector prepared for the next injection. The gradient retention times were calibrated with the acetophenone homologues for which the CHI IAM values have been established using isocratic measurements. […] The CHI Index on the IAM column (CHI IAM) approximates the acetonitrile concentration in the mobile phase when the compound elutes. […] The CHI IAM values have been converted to log k IAM values derived from the CHI IAM values using equation 1. It represents the equivalent value derived from several isocratic measurements with extrapolated log retention factors to 100 % aqueous mobile phase. The log k IAM values can be converted to log K (IAM) values and show linear relationships with the octanol/water partition coefficients.
# [5] = Charge character of the drugs at pH 7.4; assay type: physicochemical
# [6] = tested on: hERG channel; details: cited from earlier work
# [7] = literature values, mean where several reported, molar
compound,measurement,setting,value
COc1ccc(CCN2CCC(Nc3nc4ccccc4n3Cc3ccc(F)cc3)CC2)cc1 [Astemizole],chromatographic logD,[1],2.68
same,chromatographic logP,[1],3.52
same,log k HSA,"[2]; pH 7.4, Chiralpak HSA",1.17
same,log k AGP,"[3]; pH 7.4, Chiralpak AGP",1.12
same,log k IAM,[4],2.77
same,Charge,[5],Basic
same,hERG pIC50,[6],6.69
CC(C)COCC(CN(Cc1ccccc1)c1ccccc1)N1CCCC1 (stereo not shown) [Bepridil],chromatographic logD,[1],4.4
same,chromatographic logP,[1],6.62
same,log k HSA,"[2]; pH 7.4, Chiralpak HSA",1.27
same,log k AGP,"[3]; pH 7.4, Chiralpak AGP",1.14
same,log k IAM,[4],3.08
same,Charge,[5],Basic
same,hERG pIC50,[6]; [7],6.42
CN(C)CCC(c1ccc(Br)cc1)c1ccccn1 (stereo not shown) [Brompheniramine],chromatographic logD,[1],1.74
same,chromatographic logP,[1],4.27
same,log k HSA,"[2]; pH 7.4, Chiralpak HSA",0.68
same,log k AGP,"[3]; pH 7.4, Chiralpak AGP",0.68
same,log k IAM,[4],2.8
same,Charge,[5],Basic
same,hERG pIC50,[6]; [7],5.61
CCCCN1CCCCC1C(=O)Nc1c(C)cccc1C (stereo not shown) [Bupivacaine],chromatographic logD,[1],3.06
same,chromatographic logP,[1],3.97
same,log k HSA,"[2]; pH 7.4, Chiralpak HSA",-0.10
same,log k AGP,"[3]; pH 7.4, Chiralpak AGP",1.35
same,CHI IAM,[4],41.66
same,log k IAM,[4],2.34
same,Charge,[5],Weak Base
same,hERG pIC50,[6]; [7],5.51
COc1cc(N)c(Cl)cc1C(=O)NC1CCN(CCCOc2ccc(F)cc2)CC1OC (stereo not shown) [Cisapride],chromatographic logD,[1],2.65
same,chromatographic logP,[1],3.17
same,log k HSA,"[2]; pH 7.4, Chiralpak HSA",1.11
same,log k AGP,"[3]; pH 7.4, Chiralpak AGP",0.84
same,log k IAM,[4],2.35
same,Charge,[5],Basic
same,hERG pIC50,[6],6.88
CC[C@H]1OC(=O)[C@H](C)[C@@H](O[C@H]2C[C@@](C)(OC)[C@@H](O)[C@H](C)O2)[C@H](C)[C@@H](O[C@@H]2O[C@H](C)C[C@H](N(C)C)[C@H]2O)[C@](C)(OC)C[C@@H](C)C(=O)[C@H](C)[C@@H](O)[C@]1(C)O [Clarithromycin],chromatographic logD,[1],1.9
same,chromatographic logP,[1],4.55
same,log k HSA,"[2]; pH 7.4, Chiralpak HSA",-0.24
same,log k AGP,"[3]; pH 7.4, Chiralpak AGP",0.20
same,CHI IAM,[4],49.68
same,log k IAM,[4],2.70
same,Charge,[5],Basic
same,hERG pIC50,[6],4.32
CN(CCOc1ccc(NS(C)(=O)=O)cc1)CCc1ccc(NS(C)(=O)=O)cc1 [Dofetilide],chromatographic logD,[1],1.18
same,chromatographic logP,[1],1.12
same,log k HSA,"[2]; pH 7.4, Chiralpak HSA",-0.05
same,log k AGP,"[3]; pH 7.4, Chiralpak AGP",0.59
same,Charge,[5],Weak Base
same,hERG pIC50,[6],5.72
COc1cc2nc(N3CCN(C(=O)C4COc5ccccc5O4)CC3)nc(N)c2cc1OC (stereo not shown) [Doxazosin],chromatographic logD,[1],2.09
same,chromatographic logP,[1],2.24
same,log k HSA,"[2]; pH 7.4, Chiralpak HSA",1.04
same,log k AGP,"[3]; pH 7.4, Chiralpak AGP",0.72
same,log k IAM,[4],2.16
same,Charge,[5],Weak Base
same,hERG pIC50,[6]; [7],6.03
O=C(NCC1CCCCN1)c1cc(OCC(F)(F)F)ccc1OCC(F)(F)F (stereo not shown) [Flecainide],chromatographic logD,[1],1.68
same,chromatographic logP,[1],3.01
same,log k HSA,"[2]; pH 7.4, Chiralpak HSA",-0.05
same,log k AGP,"[3]; pH 7.4, Chiralpak AGP",0.16
same,log k IAM,[4],2.33
same,Charge,[5],Basic
same,hERG pIC50,[6]; [7],5.25
CCCCC1=NC2(CCCC2)C(=O)N1Cc1ccc(-c2ccccc2-c2nnn[nH]2)cc1 [Irbesartan],chromatographic logD,[1],1.39
same,chromatographic logP,[1],2
same,log k HSA,"[2]; pH 7.4, Chiralpak HSA",1.30
same,log k AGP,"[3]; pH 7.4, Chiralpak AGP",1.10
same,CHI IAM,[4],26.14
same,log k IAM,[4],1.62
same,Charge,[5],Zwitterionic
same,hERG pIC50,[6]; [7],4.71
COC(=O)C1=C(C)NC(C)=C(C(=O)OC(C)C)C1c1cccc2nonc12 (stereo not shown) [Isradipine],chromatographic logD,[1],3.25
same,chromatographic logP,[1],3.29
same,log k HSA,"[2]; pH 7.4, Chiralpak HSA",1.19
same,log k AGP,"[3]; pH 7.4, Chiralpak AGP",1.32
same,log k IAM,[4],2.21
same,Charge,[5],Neutral
same,hERG pIC50,[6]; [7],5.71
Nc1nnc(-c2cccc(Cl)c2Cl)c(N)n1 [Lamotrigine],chromatographic logD,[1],0.86
same,chromatographic logP,[1],0.81
same,log k HSA,"[2]; pH 7.4, Chiralpak HSA",0.16
same,log k AGP,"[3]; pH 7.4, Chiralpak AGP",-0.33
same,CHI IAM,[4],23.25
same,log k IAM,[4],1.49
same,Charge,[5],Weak Base
same,hERG pIC50,[6],3.55
CCCCN1CCCC[C@H]1C(=O)Nc1c(C)cccc1C [Levobupivacaine],chromatographic logD,[1],3.25
same,chromatographic logP,[1],4.2
same,log k HSA,"[2]; pH 7.4, Chiralpak HSA",0.13
same,log k AGP,"[3]; pH 7.4, Chiralpak AGP",1.25
same,CHI IAM,[4],41.83
same,log k IAM,[4],2.34
same,Charge,[5],Weak Base
same,hERG pIC50,[6]; [7],5.48
OC(c1cc(C(F)(F)F)nc2c(C(F)(F)F)cccc12)C1CCCCN1 (stereo not shown) [Mefloquine],chromatographic logD,[1],2.18
same,chromatographic logP,[1],4.22
same,log k HSA,"[2]; pH 7.4, Chiralpak HSA",1.38
same,log k AGP,"[3]; pH 7.4, Chiralpak AGP",1.11
same,Charge,[5],Basic
same,hERG pIC50,[6],5.45
CCN(CC)CCNC(=O)c1cc(Cl)c(N)cc1OC [Metoclopramide],log k HSA,"[2]; human, pH 7.4",0.15
same,log k AGP,[3]; pH 7.4,0.23
same,Charge,[5],Basic
same,hERG pIC50,[6]; [7],5.27
COCCc1ccc(OCC(O)CNC(C)C)cc1 (stereo not shown) [Metoprolol],chromatographic logD,[1],0.77
same,log k HSA,"[2]; pH 7.4, Chiralpak HSA",-0.72
same,log k AGP,"[3]; pH 7.4, Chiralpak AGP",-0.27
same,CHI IAM,[4],35.38
same,log k IAM,[4],2.05
same,Charge,[5],Basic
same,hERG pIC50,[6]; [7],3.84
Cc1nccn1CC1CCc2c(c3ccccc3n2C)C1=O (stereo not shown) [Ondansetron],chromatographic logD,[1],1.33
same,chromatographic logP,[1],1.66
same,log k HSA,"[2]; pH 7.4, Chiralpak HSA",0.54
same,log k AGP,"[3]; pH 7.4, Chiralpak AGP",1.30
same,CHI IAM,[4],39.01
same,log k IAM,[4],2.22
same,Charge,[5],Weak Base
same,hERG pIC50,[6]; [7],5.73
CCCN1C[C@H](CSC)C[C@@H]2c3cccc4[nH]cc(c34)C[C@H]21 [Pergolide],chromatographic logD,[1],2.47
same,chromatographic logP,[1],3.81
same,log k HSA,"[2]; pH 7.4, Chiralpak HSA",0.73
same,log k AGP,"[3]; pH 7.4, Chiralpak AGP",1.04
same,log k IAM,[4],2.85
same,Charge,[5],Basic
same,hERG pIC50,[6]; [7],6.52
O=C1NC(=O)C(c2ccccc2)(c2ccccc2)N1 [Phenytoin],chromatographic logD,[1],1.73
same,chromatographic logP,[1],1.85
same,log k HSA,"[2]; pH 7.4, Chiralpak HSA",0.69
same,log k AGP,"[3]; pH 7.4, Chiralpak AGP",0.15
same,CHI IAM,[4],29.66
same,log k IAM,[4],1.78
same,Charge,[5],Weak Acid
same,hERG pIC50,[6],3.71
O=c1[nH]c2ccccc2n1C1CCN(CCCC(c2ccc(F)cc2)c2ccc(F)cc2)CC1 [Pimozide],chromatographic logD,[1],3.03
same,chromatographic logP,[1],3.89
same,log k HSA,"[2]; pH 7.4, Chiralpak HSA",1.41
same,log k AGP,"[3]; pH 7.4, Chiralpak AGP",1.47
same,log k IAM,[4],2.83
same,Charge,[5],Weak Base
same,hERG pIC50,[6],6.43
